{"source": "patent US6607727B1", "about": "“Peptides for inducing cytotoxic T lymphocyte responses to hepatitus B virus” (priority 1991, dated 2003)", "key": {"[1]": {"tested_on": "PBMCs from a patient with acute hepatitis", "assay": "CTL response to HBx peptide in PBMCs of a patient with acute hepatitis, HLA-A2 matched peptide-pulsed targets", "format": "cell-based, human"}, "[2]": {"tested_on": "HBpol455-463 specific CTL", "format": "cell-based, human"}, "[3]": {"tested_on": "PBMCs from a patient with acute hepatitis", "assay": "CTL response to HBenv 348-357 peptide in PBMCs of a patient with acute hepatitis, HLA-A2 matched targets", "format": "cell-based, human", "protocol": "The CTL induced by the HBenv 348-357 peptide were identified in PBMCs from a patient with acute hepatitis according to the procedure set forth in Example XV, except that the PMBCs were stimulated with individual peptide rather than peptide mixtures. The resulting CTL line was then tested for the ability to kill HLA-A2 matched target cells that were pulsed with the peptide or that expressed endogenous envelope antigens of ayw or adw subtypes."}, "[4]": {"tested_on": "CTL clone 3D11 (HLA A31 restricted)", "format": "cell-based, human"}, "[5]": {"tested_on": "CTL clone 2D7 (HLA Aw68 restricted)", "format": "cell-based, human"}, "CTL clones 3D11 and 2D7": {"tested_on": "CTL clones 3D11 and 2D7", "conditions": "peptide 10-3 μM to 1μM"}}}
{"substance": "AIRLKVFVL [HBx peptide 126-134 with the amino terminal residue substituted with alanine]", "values": [{"measurement": "induction of specific CTL response by peptide", "setting": "[1]", "result": "CTL were stimulated"}]}
{"substance": "EIRLKVFVL", "values": [{"measurement": "induction of specific CTL response by peptide", "setting": "[1]", "result": "not able to induce a specific CTL response"}, {"measurement": "recognition by CTL induced with the analog peptide AIRLKVFVL", "setting": "[1]", "result": "also recognized the peptide with the wild type sequence"}]}
{"substance": "GVSRYVARL [variant of HBpol455-463 (ayw isolate)]", "values": [{"measurement": "recognition by GLSRYVARL (HBpol455-463) induced CTL", "setting": "[2]", "result": "poorly recognized"}]}
{"substance": "Gly-Leu-Ser-Pro-Thr-Val-Trp-Leu-Ser-Val (GLSPTVWLSV; printed: Gly-Leu-Ser-Pro-Thr-Val-Trp-Leu-Ser-Val) [HBenv peptide 348-357]", "values": [{"measurement": "CTL recognition of envelope antigen of the adw subtype", "setting": "[3]", "result": "did not recognize the adw subtype"}, {"measurement": "CTL response to target cells pulsed with peptide", "setting": "[3]; effector:target cell ratio of 3:1", "result": "responded to target cells"}]}
{"substance": "STLPETTVVRR [141-151]", "values": [{"measurement": "Clone 3D11 Restriction Element A31 Percent 51CR Release", "setting": "[4]", "result": 69, "unit": "%"}, {"measurement": "Clone 2D7 Restriction Element Aw68 Percent 51CR Release", "setting": "[5]", "result": 66, "unit": "%"}, {"measurement": "efficiency of target lysis in dose titration", "setting": "CTL clones 3D11 and 2D7", "result": "minimal optimally recognized epitope recognized by both of the CTL clones"}]}
